Values quoted from earlier work, collected in patent US20010034325A1, “Dietary modulators of gamma glutamyl transpeptidase” (priority 2000, published 2001).

Key:
GGT = conditions: 12-o-tetradecanoyl phorbol-13-acetate induced activity
GGTP = GGTP (Homo sapiens, UniProt P19440); conditions: Misra et al. 1996
Chain of GGTP (P19440 whole entry): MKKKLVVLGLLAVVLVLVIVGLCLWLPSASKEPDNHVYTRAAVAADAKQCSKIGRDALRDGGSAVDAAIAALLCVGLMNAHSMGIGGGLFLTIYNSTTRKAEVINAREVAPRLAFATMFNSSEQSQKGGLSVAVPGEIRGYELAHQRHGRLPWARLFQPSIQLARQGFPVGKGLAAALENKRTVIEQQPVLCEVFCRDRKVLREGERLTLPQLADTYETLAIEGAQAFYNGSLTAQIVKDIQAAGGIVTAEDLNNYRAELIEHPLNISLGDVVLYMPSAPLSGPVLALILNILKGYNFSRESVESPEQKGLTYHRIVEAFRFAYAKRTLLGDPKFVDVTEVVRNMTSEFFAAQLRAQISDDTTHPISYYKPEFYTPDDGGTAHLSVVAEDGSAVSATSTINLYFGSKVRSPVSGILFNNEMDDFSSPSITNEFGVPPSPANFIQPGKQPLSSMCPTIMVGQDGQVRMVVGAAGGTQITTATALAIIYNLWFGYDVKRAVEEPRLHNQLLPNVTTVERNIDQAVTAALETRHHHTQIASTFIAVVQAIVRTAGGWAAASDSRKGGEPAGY

effect on diabetes (GGTP) | SMILES | inhibition of GGT levels (GGT)
– | OCc1c[nH]c2ccccc12 [indole-3-carbinol (I3C), indole-3-carbinol] | inhibited significantly
prevents overt diabetes | N[C@H](C(=O)O)[C@@H]1CC(Cl)=NO1 [acivicin] | –
– | C=CCSCC=C [diallylsulfide (DAS), diallylsulfide] | inhibited significantly
